What was measured:
[1] = Isothermal titration calorimeter binding to other amino acids; settings: amino acids having a similar structure to L-arginine
[2] = Binding verification by isothermal titration calorimeter with L-arginine; settings: ITC; 10 μM peptide aptamer titrated into 1 μM L-arginine, 10 mM PBS, pH 7.4, 37° C.; read-out: binding parameter Kd value
Protocol: In the present invention, a primary sequence of an L-arginine sensing protein which can be recognized with L-arginine is obtained by searching for the L-arginine sensing proteins and transporters from a protein library, followed by cutting the primary sequence of the L-arginine sensing protein into 8 amino acid residues to obtain a peptide library and removing repeated peptide sequences from the peptide library. Next, a molecular simulation is performed on the peptides in the deduplicated peptide library and L-arginine to obtain a peptide aptamer library that can specifically bind to the arginine, and preferably, the peptide aptamer library is selected for experimental verification. Then, a binding verification is carried out on the peptide aptamer library and the arginine by an isothermal titration calorimeter. A verification method is as follows: 1 μM of the L-arginine is titrated with 10 μM of the peptide aptamer, a solvent and a binding buffer is 10 mM PBS buffer, pH is 7.4, and a binding temperature is 37° C., and the peptide aptamer that can specifically bind to the L-arginine can be determined.
Molecular simulation and binding verification of a peptide aptamer with L-arginine • A) Molecular simulation of the peptide aptamer and the L-arginine: AutoDock is used to place the L-arginine on the active site of the peptide aptamer, and its binding mode is predicted. […]

FGHIHEGY [peptide aptamer]
binding ability to other amino acids (ITC) [1]: no or very weak binding ability | Kd [2]: 13.3 µM

— US11774455B2, “Peptide aptamer for specific recognition of arginine and its application” (INSTITUTE OF SUBTROPICAL AGRICULTURE, CHINESE ACADEMY OF …, priority 2019, dated 2023)
